Assay results taken from PubChem BioAssay (NCI).
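Step 1: Grow cells in 96-well plates. Step 2: Expose to compound for 48 hours at 5 concentrations. Step 3: Interpolate endpoints linearly; if unreached, use highest concentration. At the GI50, growth is halved. TGI denotes the concentration required for complete inhibition of growth.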

Assays:
Test in all cases: NCI anticancer screen, dose series, 48 h
786-0 renal = test system: 786-0 renal
A549 NSCLC = test system: A549 NSCLC
ACHN renal = test system: ACHN renal
BT-549 breast = test system: BT-549 breast
CAKI-1 renal = test system: CAKI-1 renal
COLO 205 colon = test system: COLO 205 colon
DU-145 prostate = test system: DU-145 prostate
EKVX NSCLC = test system: EKVX NSCLC
HCT-116 colon = test system: HCT-116 colon
HCT-15 colon = test system: HCT-15 colon
HL-60(TB) leukemia = test system: HL-60(TB) leukemia
HOP-62 NSCLC = test system: HOP-62 NSCLC
HS 578T breast = test system: HS 578T breast
HT29 colon = test system: HT29 colon
IGROV1 ovarian = test system: IGROV1 ovarian
K-562 leukemia = test system: K-562 leukemia
KM12 colon = test system: KM12 colon
LOX IMVI melanoma = test system: LOX IMVI melanoma
M14 melanoma = test system: M14 melanoma
MALME-3M melanoma = test system: MALME-3M melanoma
MCF7 breast = test system: MCF7 breast
MDA-MB-231 breast = test system: MDA-MB-231 breast
MDA-MB-435 = test system: MDA-MB-435
MOLT-4 leukemia = test system: MOLT-4 leukemia
NCI-H226 lung = test system: NCI-H226 lung
NCI-H23 lung = test system: NCI-H23 lung
NCI-H460 lung = test system: NCI-H460 lung
NCI-H522 lung = test system: NCI-H522 lung
NCI/ADR-RES ovarian = test system: NCI/ADR-RES ovarian
OVCAR-3 ovarian = test system: OVCAR-3 ovarian
OVCAR-5 ovarian = test system: OVCAR-5 ovarian
OVCAR-8 ovarian = test system: OVCAR-8 ovarian
PC-3 prostate = test system: PC-3 prostate
RXF 393 renal = test system: RXF 393 renal
SF-268 CNS = test system: SF-268 CNS
SF-295 CNS = test system: SF-295 CNS
SF-539 CNS = test system: SF-539 CNS
SK-MEL-28 melanoma = test system: SK-MEL-28 melanoma
SK-MEL-5 melanoma = test system: SK-MEL-5 melanoma
SK-OV-3 ovarian = test system: SK-OV-3 ovarian
SN12C renal = test system: SN12C renal
SNB-19 CNS = test system: SNB-19 CNS
SNB-75 CNS = test system: SNB-75 CNS
SR leukemia = test system: SR leukemia
SW-620 colon = test system: SW-620 colon
T-47D breast = test system: T-47D breast
TK-10 renal = test system: TK-10 renal
U251 CNS = test system: U251 CNS
UACC-257 melanoma = test system: UACC-257 melanoma
UACC-62 melanoma = test system: UACC-62 melanoma
UO-31 renal = test system: UO-31 renal
A498 renal = test system: A498 renal
CCRF-CEM leukemia = test system: CCRF-CEM leukemia
HCC-2998 colon = test system: HCC-2998 colon
HOP-92 NSCLC = test system: HOP-92 NSCLC
OVCAR-4 ovarian = test system: OVCAR-4 ovarian
RPMI-8226 leukemia = test system: RPMI-8226 leukemia
SK-MEL-2 melanoma = test system: SK-MEL-2 melanoma

## C/C(=C\CO)CC/C=C(\C)CNc1ccccc1
786-0 renal
  TGI: > 100 µM
A549 NSCLC
  TGI: > 100 µM
ACHN renal
  TGI: > 100 µM
BT-549 breast
  TGI: 55.2 µM
CAKI-1 renal
  TGI: > 100 µM
COLO 205 colon
  TGI: > 100 µM
DU-145 prostate
  TGI: > 100 µM
EKVX NSCLC
  TGI: 93.7 µM
HCT-116 colon
  TGI: > 100 µM
HCT-15 colon
  TGI: > 100 µM
HL-60(TB) leukemia
  TGI: > 100 µM
HOP-62 NSCLC
  TGI: > 100 µM
HS 578T breast
  TGI: 97.8 µM
HT29 colon
  TGI: 47.9 µM
IGROV1 ovarian
  TGI: > 100 µM
K-562 leukemia
  TGI: > 100 µM
KM12 colon
  TGI: > 100 µM
LOX IMVI melanoma
  TGI: > 100 µM
M14 melanoma
  TGI: > 100 µM
MALME-3M melanoma
  TGI: 66.9 µM
MCF7 breast
  TGI: > 100 µM
MDA-MB-231 breast
  TGI: > 100 µM
MDA-MB-435
  TGI: > 100 µM
MOLT-4 leukemia
  TGI: 25.7 µM
NCI-H226 lung
  TGI: > 100 µM
NCI-H23 lung
  TGI: 27.1 µM
NCI-H460 lung
  TGI: > 100 µM
NCI-H522 lung
  TGI: 98.5 µM
NCI/ADR-RES ovarian
  TGI: > 100 µM
OVCAR-3 ovarian
  TGI: > 100 µM
OVCAR-5 ovarian
  TGI: > 100 µM
OVCAR-8 ovarian
  TGI: > 100 µM
PC-3 prostate
  TGI: > 100 µM
RXF 393 renal
  TGI: > 100 µM
SF-268 CNS
  TGI: > 100 µM
SF-295 CNS
  TGI: > 100 µM
SF-539 CNS
  TGI: > 100 µM
SK-MEL-28 melanoma
  TGI: > 100 µM
SK-MEL-5 melanoma
  TGI: 34.1 µM
SK-OV-3 ovarian
  TGI: > 100 µM
SN12C renal
  TGI: > 100 µM
SNB-19 CNS
  TGI: > 100 µM
SNB-75 CNS
  TGI: 54.6 µM
SR leukemia
  TGI: 79.5 µM
SW-620 colon
  TGI: > 100 µM
T-47D breast
  TGI: 81 µM
TK-10 renal
  TGI: 65.4 µM
U251 CNS
  TGI: > 100 µM
UACC-257 melanoma
  TGI: 91.8 µM
UACC-62 melanoma
  TGI: > 100 µM
UO-31 renal
  TGI: > 100 µM

## C=C1C(=O)c2sccc2C(c2ccc(OC)c(OC)c2)C1COC(C)=O (stereo not drawn)
786-0 renal
  GI50: 0.297 µM
  TGI: 3.99 µM
A498 renal
  GI50: 2.13 µM
  TGI: 7.2 µM
A549 NSCLC
  GI50: 3.25 µM
  TGI: 11.5 µM
ACHN renal
  GI50: 1.86 µM
BT-549 breast
  GI50: 2.11 µM
  TGI: 4.79 µM
CAKI-1 renal
  GI50: 2.1 µM
  TGI: 6.57 µM
CCRF-CEM leukemia
  GI50: 0.0661 µM
  TGI: 0.777 µM
COLO 205 colon
  GI50: 2.25 µM
  TGI: 4.89 µM
DU-145 prostate
  GI50: 0.761 µM
  TGI: 2.04 µM
EKVX NSCLC
  GI50: 8.37 µM
  TGI: 21.3 µM
HCC-2998 colon
  GI50: 2.89 µM
  TGI: 7.56 µM
HCT-116 colon
  GI50: 1.62 µM
  TGI: 10.3 µM
HCT-15 colon
  GI50: 2.03 µM
HL-60(TB) leukemia
  GI50: 2.98 µM
  TGI: > 100 µM
HOP-62 NSCLC
  GI50: 6.54 µM
  TGI: 15.7 µM
HOP-92 NSCLC
  GI50: 2.46 µM
  TGI: 6.91 µM
HS 578T breast
  GI50: 2.54 µM
  TGI: 8.4 µM
HT29 colon
  GI50: 1.36 µM
  TGI: 4.01 µM
IGROV1 ovarian
  GI50: 2.27 µM
  TGI: 5.67 µM
K-562 leukemia
  GI50: 0.2 µM
  TGI: > 29.7 µM
KM12 colon
  GI50: 1.21 µM
  TGI: > 25.7 µM
LOX IMVI melanoma
  GI50: 0.173 µM
M14 melanoma
  TGI: 3.1 µM
MALME-3M melanoma
  GI50: 1.5 µM
  TGI: 6.41 µM
MCF7 breast
  GI50: 0.953 µM
  TGI: 2.98 µM
MDA-MB-231 breast
  GI50: 0.551 µM
  TGI: 2.48 µM
MDA-MB-435
  GI50: 1.92 µM
  TGI: 6.18 µM
MOLT-4 leukemia
  GI50: 0.219 µM
  TGI: 0.733 µM
NCI-H226 lung
  GI50: 2.93 µM
  TGI: 8.56 µM
NCI-H23 lung
  GI50: 1.54 µM
  TGI: 4.94 µM
NCI-H460 lung
  GI50: 3.72 µM
  TGI: 14 µM
NCI-H522 lung
  GI50: 1.13 µM
  TGI: 4.04 µM
NCI/ADR-RES ovarian
  GI50: 2.36 µM
OVCAR-3 ovarian
  GI50: 1.67 µM
  TGI: 5.79 µM
OVCAR-4 ovarian
  GI50: 4.81 µM
  TGI: 19.5 µM
OVCAR-5 ovarian
  GI50: 2.42 µM
  TGI: 9.29 µM
OVCAR-8 ovarian
  GI50: 2.74 µM
  TGI: 8.14 µM
PC-3 prostate
  GI50: 1.3 µM
  TGI: 2.81 µM
RPMI-8226 leukemia
  TGI: 0.0366 µM
RXF 393 renal
  GI50: 0.595 µM
  TGI: 1.99 µM
SF-268 CNS
  GI50: 3.44 µM
  TGI: 12.9 µM
SF-295 CNS
  GI50: 4.43 µM
  TGI: 16.5 µM
SF-539 CNS
  GI50: 1.61 µM
  TGI: 3.27 µM
SK-MEL-2 melanoma
  GI50: 10.8 µM
  TGI: 23 µM
SK-MEL-28 melanoma
  GI50: 2.15 µM
  TGI: 4.42 µM
SK-MEL-5 melanoma
  GI50: 1.9 µM
  TGI: 4.74 µM
SK-OV-3 ovarian
  GI50: 5.46 µM
  TGI: 20 µM
SN12C renal
  GI50: 1.33 µM
  TGI: 3.24 µM
SNB-19 CNS
  GI50: 8.47 µM
  TGI: 32.7 µM
SNB-75 CNS
  GI50: 8.39 µM
  TGI: 28.8 µM
SW-620 colon
  GI50: 0.656 µM
  TGI: 2.51 µM
T-47D breast
  GI50: 2.24 µM
  TGI: 5.77 µM
TK-10 renal
  GI50: 1.34 µM
  TGI: 4.85 µM
U251 CNS
  GI50: 1.62 µM
UACC-257 melanoma
  GI50: 1.93 µM
  TGI: 5.77 µM
UACC-62 melanoma
  GI50: 1.43 µM
  TGI: 3.17 µM
UO-31 renal
  GI50: 1.81 µM
  TGI: 3.39 µM
